In PMC5814754, “Quantitative, Wide-Spectrum Kinase Profiling in Live Cells for Assessing the Effect of Cellular ATP on Target Engagement” (Cell Chemical Biology, 2018):
pEC50: −log10 of the molar value. One block for each compound: values may come before it.

Assays:
Assay in all cases: Apparent affinity (EC50) of energy transfer probes by titration onto live HEK293 cells expressing kinase/Nluc fusions (Table S1)
Type in all cases: binding
[1] = target: full-length kinase/Nluc fusion proteins (Homo sapiens, UniProt P31749); conditions: AKT1, Nluc C; read-out: Probe EC50
full-length kinase/Nluc fusion proteins (Homo sapiens, UniProt P31749), sequence (P31749 whole entry, the tested form may be a part): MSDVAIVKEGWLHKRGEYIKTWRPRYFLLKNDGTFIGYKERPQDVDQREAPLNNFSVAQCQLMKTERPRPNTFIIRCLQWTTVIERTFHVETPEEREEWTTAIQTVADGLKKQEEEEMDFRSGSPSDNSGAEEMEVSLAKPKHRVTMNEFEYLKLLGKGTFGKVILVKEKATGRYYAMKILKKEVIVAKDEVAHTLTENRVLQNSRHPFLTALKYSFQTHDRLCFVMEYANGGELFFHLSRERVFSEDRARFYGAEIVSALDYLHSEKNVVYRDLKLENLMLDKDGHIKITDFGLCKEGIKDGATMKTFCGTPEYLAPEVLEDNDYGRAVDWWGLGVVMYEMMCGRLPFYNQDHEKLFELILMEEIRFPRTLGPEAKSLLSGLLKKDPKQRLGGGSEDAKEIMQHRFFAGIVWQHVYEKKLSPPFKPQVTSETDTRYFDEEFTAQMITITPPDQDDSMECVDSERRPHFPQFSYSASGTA

[2] = target: full-length kinase/Nluc fusion proteins (Homo sapiens, UniProt Q9UM73); conditions: ALK, Nluc C; read-out: Probe EC50
full-length kinase/Nluc fusion proteins (Homo sapiens, UniProt Q9UM73), sequence (Q9UM73 19-1620): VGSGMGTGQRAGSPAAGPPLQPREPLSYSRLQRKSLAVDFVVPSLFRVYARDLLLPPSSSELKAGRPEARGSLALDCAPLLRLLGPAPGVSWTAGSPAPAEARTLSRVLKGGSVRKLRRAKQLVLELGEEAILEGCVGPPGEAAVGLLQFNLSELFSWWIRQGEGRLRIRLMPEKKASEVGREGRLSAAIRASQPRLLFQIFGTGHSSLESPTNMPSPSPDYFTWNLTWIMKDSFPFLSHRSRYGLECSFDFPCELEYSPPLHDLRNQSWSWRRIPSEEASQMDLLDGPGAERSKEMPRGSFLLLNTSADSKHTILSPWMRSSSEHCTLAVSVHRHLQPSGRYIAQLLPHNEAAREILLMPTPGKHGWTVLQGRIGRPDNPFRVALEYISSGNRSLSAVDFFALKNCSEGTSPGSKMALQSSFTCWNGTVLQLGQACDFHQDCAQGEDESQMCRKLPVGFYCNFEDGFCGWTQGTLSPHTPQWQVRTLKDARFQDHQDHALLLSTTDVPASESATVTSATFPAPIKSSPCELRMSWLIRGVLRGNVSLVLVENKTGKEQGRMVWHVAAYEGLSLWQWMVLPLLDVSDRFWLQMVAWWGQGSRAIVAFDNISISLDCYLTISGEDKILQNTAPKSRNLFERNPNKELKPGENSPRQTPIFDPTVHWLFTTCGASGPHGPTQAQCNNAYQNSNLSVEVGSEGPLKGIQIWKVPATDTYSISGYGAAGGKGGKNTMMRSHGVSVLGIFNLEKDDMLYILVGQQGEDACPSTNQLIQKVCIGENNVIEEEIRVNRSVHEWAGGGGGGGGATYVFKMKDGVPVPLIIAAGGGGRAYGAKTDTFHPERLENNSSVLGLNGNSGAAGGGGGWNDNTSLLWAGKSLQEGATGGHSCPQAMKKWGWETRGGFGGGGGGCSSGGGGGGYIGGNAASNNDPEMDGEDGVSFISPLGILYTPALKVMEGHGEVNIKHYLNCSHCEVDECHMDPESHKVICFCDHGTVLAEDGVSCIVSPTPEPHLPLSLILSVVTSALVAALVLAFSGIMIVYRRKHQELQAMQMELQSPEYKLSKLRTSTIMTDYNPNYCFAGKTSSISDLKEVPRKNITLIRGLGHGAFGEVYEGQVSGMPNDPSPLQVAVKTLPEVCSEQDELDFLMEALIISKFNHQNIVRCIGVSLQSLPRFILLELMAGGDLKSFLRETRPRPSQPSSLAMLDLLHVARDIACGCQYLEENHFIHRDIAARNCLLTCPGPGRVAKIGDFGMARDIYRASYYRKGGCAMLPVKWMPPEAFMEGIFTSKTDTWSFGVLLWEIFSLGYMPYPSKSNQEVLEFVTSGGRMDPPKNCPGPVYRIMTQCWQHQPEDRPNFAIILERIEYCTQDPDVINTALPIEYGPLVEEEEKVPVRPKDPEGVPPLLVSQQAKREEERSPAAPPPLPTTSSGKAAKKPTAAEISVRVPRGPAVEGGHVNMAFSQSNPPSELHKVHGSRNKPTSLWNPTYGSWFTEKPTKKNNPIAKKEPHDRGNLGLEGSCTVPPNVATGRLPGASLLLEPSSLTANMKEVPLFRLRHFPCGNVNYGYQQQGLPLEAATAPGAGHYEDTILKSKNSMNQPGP

[3] = target: full-length kinase/Nluc fusion proteins (Homo sapiens, UniProt Q9BYT3); conditions: STK33 (NP_001275990), Nluc orientation N; read-out: Probe EC50
[4] = target: full-length kinase/Nluc fusion proteins (Homo sapiens, UniProt Q8WU08); conditions: STK32A (NP_001106195), Nluc orientation N; read-out: Probe EC50
[5] = target: full-length kinase/Nluc fusion proteins (Homo sapiens, UniProt Q9Y4K4); conditions: MAP4K5, Nluc C; read-out: Probe EC50
[6] = target: full-length kinase/Nluc fusion proteins (Homo sapiens, UniProt P31751); conditions: AKT2, Nluc C; read-out: Probe EC50
[7] = target: full-length kinase/Nluc fusion proteins (Homo sapiens, UniProt Q16584); conditions: MAP3K11, Nluc N; read-out: Probe EC50
[8] = target: full-length kinase/Nluc fusion proteins (Homo sapiens, UniProt Q06418); conditions: TYRO3 (NP_006284), Nluc orientation C; read-out: Probe EC50
[9] = target: full-length kinase/Nluc fusion proteins (Homo sapiens, UniProt Q13470); conditions: TNK1 (NP_003976), Nluc orientation N; read-out: Probe EC50
[10] = target: full-length kinase/Nluc fusion proteins (Homo sapiens, UniProt Q9NWZ3); conditions: IRAK4, Nluc C; read-out: Probe EC50
[11] = target: full-length kinase/Nluc fusion proteins (Homo sapiens, UniProt P04629); conditions: NTRK1, Nluc C; read-out: Probe EC50
[12] = target: full-length kinase/Nluc fusion proteins (Homo sapiens, UniProt Q00535); conditions: CDK5, Nluc C; read-out: Probe EC50
[13] = target: full-length kinase/Nluc fusion proteins (Homo sapiens, UniProt P28482); conditions: MAPK1, Nluc N; read-out: Probe EC50
[14] = target: full-length kinase/Nluc fusion proteins (Homo sapiens, UniProt Q13237); conditions: PRKG2, Nluc C; read-out: Probe EC50
full-length kinase/Nluc fusion proteins (Homo sapiens, UniProt Q13237), sequence (Q13237 whole entry, the tested form may be a part): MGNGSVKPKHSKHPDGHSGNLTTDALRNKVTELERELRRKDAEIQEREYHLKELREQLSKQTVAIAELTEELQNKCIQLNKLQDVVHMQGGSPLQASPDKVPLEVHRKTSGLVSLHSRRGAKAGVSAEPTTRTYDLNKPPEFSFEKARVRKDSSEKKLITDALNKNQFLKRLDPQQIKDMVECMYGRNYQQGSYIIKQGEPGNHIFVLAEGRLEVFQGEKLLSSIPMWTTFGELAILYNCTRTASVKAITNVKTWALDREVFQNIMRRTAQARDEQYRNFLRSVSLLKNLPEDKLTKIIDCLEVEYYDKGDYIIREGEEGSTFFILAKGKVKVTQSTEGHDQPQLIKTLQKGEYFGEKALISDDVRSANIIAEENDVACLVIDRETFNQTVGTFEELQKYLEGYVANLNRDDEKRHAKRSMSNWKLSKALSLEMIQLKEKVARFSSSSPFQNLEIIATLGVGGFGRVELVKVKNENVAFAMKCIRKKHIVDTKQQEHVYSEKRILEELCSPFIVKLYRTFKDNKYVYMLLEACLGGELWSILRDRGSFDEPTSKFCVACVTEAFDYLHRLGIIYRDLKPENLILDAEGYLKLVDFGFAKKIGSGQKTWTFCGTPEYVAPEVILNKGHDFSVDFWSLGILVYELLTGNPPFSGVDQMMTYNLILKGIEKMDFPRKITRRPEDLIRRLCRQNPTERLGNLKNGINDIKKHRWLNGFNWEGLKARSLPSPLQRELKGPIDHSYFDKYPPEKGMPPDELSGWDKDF

[15] = target: full-length kinase/Nluc fusion proteins (Homo sapiens, UniProt P29597); conditions: TYK2 (NP_003322), Nluc orientation C; read-out: Probe EC50
full-length kinase/Nluc fusion proteins (Homo sapiens, UniProt P29597), sequence (P29597 whole entry, the tested form may be a part): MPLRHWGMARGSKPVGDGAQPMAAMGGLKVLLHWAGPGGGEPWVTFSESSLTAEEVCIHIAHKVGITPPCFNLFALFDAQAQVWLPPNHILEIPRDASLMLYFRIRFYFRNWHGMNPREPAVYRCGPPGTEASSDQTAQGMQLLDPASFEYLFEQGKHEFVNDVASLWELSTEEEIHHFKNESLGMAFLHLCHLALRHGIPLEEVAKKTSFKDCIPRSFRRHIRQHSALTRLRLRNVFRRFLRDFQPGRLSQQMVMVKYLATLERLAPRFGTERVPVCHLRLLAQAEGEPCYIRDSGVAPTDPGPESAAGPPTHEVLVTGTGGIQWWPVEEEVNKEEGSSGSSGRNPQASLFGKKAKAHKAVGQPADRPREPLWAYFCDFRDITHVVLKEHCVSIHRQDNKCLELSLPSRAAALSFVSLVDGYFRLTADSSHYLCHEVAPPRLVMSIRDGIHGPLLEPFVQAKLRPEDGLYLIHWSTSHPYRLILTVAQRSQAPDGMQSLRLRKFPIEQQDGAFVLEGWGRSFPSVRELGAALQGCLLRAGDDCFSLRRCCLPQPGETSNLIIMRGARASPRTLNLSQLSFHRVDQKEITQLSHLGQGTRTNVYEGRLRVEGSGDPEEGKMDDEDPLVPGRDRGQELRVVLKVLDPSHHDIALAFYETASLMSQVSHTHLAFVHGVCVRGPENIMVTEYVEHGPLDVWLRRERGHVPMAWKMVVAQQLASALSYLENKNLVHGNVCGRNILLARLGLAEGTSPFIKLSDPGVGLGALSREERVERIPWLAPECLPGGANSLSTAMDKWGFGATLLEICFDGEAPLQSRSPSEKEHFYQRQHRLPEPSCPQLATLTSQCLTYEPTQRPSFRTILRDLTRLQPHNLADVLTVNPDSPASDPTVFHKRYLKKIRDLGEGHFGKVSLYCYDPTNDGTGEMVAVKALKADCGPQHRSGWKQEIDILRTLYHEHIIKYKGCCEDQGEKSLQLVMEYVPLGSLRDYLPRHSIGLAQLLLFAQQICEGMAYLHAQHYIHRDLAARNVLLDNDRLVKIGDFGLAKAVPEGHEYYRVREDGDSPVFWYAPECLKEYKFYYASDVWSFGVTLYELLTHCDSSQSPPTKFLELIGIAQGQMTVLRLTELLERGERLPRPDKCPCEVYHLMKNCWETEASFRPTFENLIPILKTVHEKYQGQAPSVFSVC

[16] = target: full-length kinase/Nluc fusion proteins (Homo sapiens, UniProt O60674); conditions: JAK2, Nluc C; read-out: Probe EC50
[17] = target: full-length kinase/Nluc fusion proteins (Homo sapiens, UniProt Q05397); conditions: PTK2, Nluc N; read-out: Probe EC50
[18] = target: full-length kinase/Nluc fusion proteins (Homo sapiens, UniProt Q15375); conditions: EPHA7, Nluc C; read-out: Probe EC50
[19] = target: full-length kinase/Nluc fusion proteins (Homo sapiens, UniProt Q7KZI7); conditions: MARK2, Nluc N; read-out: Probe EC50
[20] = target: full-length kinase/Nluc fusion proteins (Homo sapiens, UniProt O15146); conditions: MUSK, Nluc C; read-out: Probe EC50
[21] = target: full-length kinase/Nluc fusion proteins (Homo sapiens, UniProt P17612); conditions: PRKACA, Nluc C; read-out: Probe EC50
[22] = target: full-length kinase/Nluc fusion proteins (Homo sapiens, UniProt O75716); conditions: STK16 (NP_001317142), Nluc orientation N; read-out: Probe EC50
[23] = target: full-length kinase/Nluc fusion proteins (Homo sapiens, UniProt Q16659); conditions: MAPK6, Nluc N; read-out: Probe EC50
[24] = target: full-length kinase/Nluc fusion proteins (Homo sapiens, UniProt P51451); conditions: BLK, Nluc N; read-out: Probe EC50
full-length kinase/Nluc fusion proteins (Homo sapiens, UniProt P51451), sequence (P51451 whole entry, the tested form may be a part): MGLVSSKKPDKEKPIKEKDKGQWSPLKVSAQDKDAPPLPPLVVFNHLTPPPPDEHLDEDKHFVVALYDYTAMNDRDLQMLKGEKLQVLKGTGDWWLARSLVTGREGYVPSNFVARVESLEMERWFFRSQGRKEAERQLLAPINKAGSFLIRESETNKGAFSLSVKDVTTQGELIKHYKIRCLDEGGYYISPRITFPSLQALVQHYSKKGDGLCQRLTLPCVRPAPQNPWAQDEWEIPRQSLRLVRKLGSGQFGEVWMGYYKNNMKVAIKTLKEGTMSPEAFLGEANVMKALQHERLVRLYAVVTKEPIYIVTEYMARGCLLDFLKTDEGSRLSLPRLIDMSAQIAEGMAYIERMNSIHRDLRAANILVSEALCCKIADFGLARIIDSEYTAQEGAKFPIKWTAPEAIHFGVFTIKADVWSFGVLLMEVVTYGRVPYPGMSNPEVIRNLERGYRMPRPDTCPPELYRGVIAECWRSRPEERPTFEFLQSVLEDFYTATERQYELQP

[25] = target: full-length kinase/Nluc fusion proteins (Homo sapiens, UniProt P29317); conditions: EPHA2, Nluc C; read-out: Probe EC50
[26] = target: full-length kinase/Nluc fusion proteins (Homo sapiens, UniProt P06241); conditions: FYN, Nluc C; read-out: Probe EC50
[27] = target: full-length kinase/Nluc fusion proteins (Homo sapiens, UniProt P42680); conditions: TEC (NP_003206), Nluc orientation N; read-out: Probe EC50
[28] = target: full-length kinase/Nluc fusion proteins (Homo sapiens, UniProt P07948); conditions: LYN, Nluc C; read-out: Probe EC50
full-length kinase/Nluc fusion proteins (Homo sapiens, UniProt P07948), sequence (P07948 whole entry, the tested form may be a part): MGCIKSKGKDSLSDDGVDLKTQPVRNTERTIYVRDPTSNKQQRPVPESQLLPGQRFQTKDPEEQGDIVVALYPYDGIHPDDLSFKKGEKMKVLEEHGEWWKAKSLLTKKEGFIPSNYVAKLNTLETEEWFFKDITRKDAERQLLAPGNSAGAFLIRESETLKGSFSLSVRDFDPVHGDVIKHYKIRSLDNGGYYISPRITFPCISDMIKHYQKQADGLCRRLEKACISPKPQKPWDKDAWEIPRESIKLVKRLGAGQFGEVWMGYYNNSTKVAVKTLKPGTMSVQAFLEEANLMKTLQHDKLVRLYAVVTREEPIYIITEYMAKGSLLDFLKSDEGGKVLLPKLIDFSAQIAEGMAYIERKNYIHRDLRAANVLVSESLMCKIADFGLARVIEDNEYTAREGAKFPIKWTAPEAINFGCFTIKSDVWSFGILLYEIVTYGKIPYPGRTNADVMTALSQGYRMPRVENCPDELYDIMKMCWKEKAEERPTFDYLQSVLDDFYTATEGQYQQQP

[29] = target: full-length kinase/Nluc fusion proteins (Homo sapiens, UniProt Q08345); conditions: DDR1, Nluc C; read-out: Probe EC50
[30] = target: full-length kinase/Nluc fusion proteins (Homo sapiens, UniProt P41240); conditions: CSK, Nluc C; read-out: Probe EC50
[31] = target: full-length kinase/Nluc fusion proteins (Homo sapiens, UniProt P09769); conditions: FGR, Nluc N; read-out: Probe EC50
[32] = target: full-length kinase/Nluc fusion proteins (Homo sapiens, UniProt Q15759); conditions: MAPK11, Nluc N; read-out: Probe EC50

pEC50 [1]: < 6.00
pEC50 [2]: < 6.00
pEC50 [3]: 6.40
pEC50 [4]: < 6.00
pEC50 [5]: < 6.00
pEC50 [6]: < 6.00
pEC50 [7]: < 6.00
pEC50 [8]: < 6.00
pEC50 [9]: 7.30
pEC50 [10]: < 6.00
pEC50 [11]: 6.40
pEC50 [12]: < 6.00
pEC50 [13]: < 6.00
pEC50 [14]: < 6.00
pEC50 [15]: < 6.00
pEC50 [16]: < 6.00
pEC50 [17]: 7.05
pEC50 [18]: < 6.00
pEC50 [19]: < 6.00
pEC50 [20]: < 6.00
pEC50 [21]: < 6.00
pEC50 [22]: 6.52
pEC50 [23]: 6.40
SMILES: CNC(=O)c1ccccc1Nc1nc(Nc2ccc(N3CCN(C(=O)CCOCCOCCOCCOCCNC(=O)CCc4ccc5n4[B-](F)(F)[N+]4=C(c6ccc[nH]6)C=CC4=C5)CC3)cc2)ncc1Cl [Energy Transfer Probe 5, 2-((2-((4-(4-(1-amino-3,6,9,12-tetraoxapentadecan-15-oyl)piperazin-1-yl)phenyl)amino)-5-chloropyrimidin-4-yl)amino)-N-methylbenzamide-NanoBRET 590]

pEC50 [24]: 6.52
pEC50 [25]: 7.22
pEC50 [26]: 6.30
pEC50 [27]: < 6.00
pEC50 [28]: < 6.00
pEC50 [29]: 7.40
pEC50 [30]: < 6.00
pEC50 [31]: 6.15
pEC50 [32]: 6.70
SMILES: Cc1nc(Nc2ncc(C(=O)Nc3c(C)cccc3Cl)s2)cc(N2CCN(CCOCCNC(=O)CCc3ccc4n3[B-](F)(F)[N+]3=C(c5ccc[nH]5)C=CC3=C4)CC2)n1 [Energy Transfer Probe 6, 2-((6-(4-(2-(2-aminoethoxy)ethyl)piperazin-1-yl)-2-methylpyrimidin-4-yl)amino)-N-(2-chloro-6-methylphenyl)thiazole-5-carboxamide-NanoBRET 590]
